From patent US20260284082A1, “TARGETING THE PANX1-P2Y2R-TRPV4 PATHWAY TO TREAT LUNG ISCHEMIA-REPERFUSION INJURY” (UNIVERSITY OF VIRGINIA PATENT FOUNDATION, priority 2023, published 2026)

How the values were obtained:
TRPV4 channels = conditions: CPA 20 μM as used; cited from earlier work
[1] = human, in vivo; cited from earlier work
[2] = test system: pulmonary endothelium of small PAs; test: Baseline endothelial Ca2+ signaling in en face small PAs after lung IR (Fluo-4 confocal imaging); format: cell-based, mice; conditions: apyrase 10 U/mL; small PAs after lung IR
Method: (§1) Murine lung IR model: A well-established left lung IRI model involving temporary in vivo ligation of the left hilum (pulmonary artery, vein, and airway) was used.^6 Briefly, mice were anesthetized with inhaled isoflurane, intubated, ventilated with room air at 150 strokes/min with a tidal volume of […] (Harvard Apparatus Co, South Natick, MA), and heparinized (20 U/kg: Hospira Inc, Lake Forest, IL). An anterolateral thoracotomy was performed through the fourth intercostal space to expose the left hilum. A 6-0 Prolene suture (Ethicon. Somerville, NJ) was passed around the left hilum, and the suture ends were passed through a 5-mm length of polyethylene (PE)-50 tubing. A surgical clip was used to fashion a Rummel tourniquet to provide temporary occlusion of the left hilar structures. The thoracotomy was closed, anesthesia was weaned, and analgesia was administered (intraperitoneal buprenorphine. 0.2 mg/kg). Animals recovered in their cages during the 1-hour ischemic period, after which they were anesthetized again and intubated, the Rummel tourniquet was removed, and the thoracotomy was closed. Animals were again extubated, recovered in their cage, and monitored during the 2-hour reperfusion period. Sham animals underwent the same surgical procedure except that application of the Rummel tourniquet to induce ischemia was omitted; thus, these animals were perfused for a total of 3 hours.
Ca^2+ imaging in Pas: Ca^2+ imaging in small Pas was performed as previously described.8 Fourth-order, small (~50 μm diameter) Pas (see FIG. 1B) were dissected from left lungs in cold HEPES-buffered physiological salt solution (HEPES-PSS; 10 mM HEPES, 134 mM NaCl, 6 mM KCl, 1 mM MgCl2 hexahydrate, 2 mM CaCl2) dihydrate, and 7 mM dextrose; pH adjusted to 7.4 using 1 M NaOH). […] Fluo-4 was excited using a 488-nm solid-state laser, and emitted fluorescence was captured using a 525/36-nm band-pass filter. […] Baseline Ca^2+ signaling activity was recorded in the absence of CPA. […]

TRPV4EC channels = test: TRPV4 sparklet activity in endothelium of small PAs after lung IR (in presence of CPA); format: cell-based, mice; conditions: apyrase 10 U/mL; small PAs after lung IR
Method: as §1, with “Sham animals underwent the same surgical procedure except that application of the Rummel tourniquet to induce ischemia was omitted; thus, these animals were perfused for a total of 3 hours.” left out
Ca^2+ imaging in Pas: Ca^2+ imaging in small Pas was performed as previously described.8 Fourth-order, small (~50 μm diameter) Pas (see FIG. 1B) were dissected from left lungs in cold HEPES-buffered physiological salt solution (HEPES-PSS; 10 mM HEPES, 134 mM NaCl, 6 mM KCl, 1 mM MgCl2 hexahydrate, 2 mM CaCl2) dihydrate, and 7 mM dextrose; pH adjusted to 7.4 using 1 M NaOH). […] Fluo-4 was excited using a 488-nm solid-state laser, and emitted fluorescence was captured using a 525/36-nm band-pass filter. […] Baseline Ca^2+ signaling activity was recorded in the absence of CPA.
TRPV4 sparklets were assessed as increases in fluorescence relative to baseline fluorescence, obtained by averaging 10 quiescent images prior to stimulation. […]

[3] = test system: eATP efflux through Panx1 channels; test: Luciferase assay for eATP release from small PAs; format: cell-based, mouse; conditions: GSK101 10 nM
Method: Luciferase assay for total ATP release: Small Pas were cut open and pinned down en face on a Sylgard block. Pas were then placed in black, opaque 96-well plates and incubated in HEPES-PSS for 10 minutes at 37° C., followed by incubation with the ectonucleotidase inhibitor ARL 67156 (300 μmol/L; Tocris Bioscience, Minneapolis, MN) for 30 minutes at 37° C. A 50-μL aliquot of each sample was transferred to another black, opaque 96-well plate, and ATP was measured using an ATP Bioluminescence HSII kit (Roche Applied Science, Penzberg, Germany).^5 Briefly, 50 μL of the luciferase reagent, luciferin, provided in the assay kit (Roche Applied Science), was added to each well and. following a 5-second orbital mix, luminescence was recorded using a luminometer (FluoStar Omega). ATP concentrations were calculated by reference to an ATP standard curve.

**Q.** Which “effect of CPA by itself on activity of TRPV4 channels” value (TRPV4 channels) does the source give for `CC(=O)C1=C(O)[C@@H]2[C@H]3c4c[nH]c5cccc(c45)C[C@H]3C(C)(C)N2C1=O` [CPA, Cyclopiazonic acid] here?
**A.** The value was “does not alter”.

**Q.** With `CC(C)(O)c1cnc(N2C[C@@]3(CCC[C@](C)(Cn4cnc5ccc(C#N)cc54)C3)OC2=O)cn1` [GSK2798745] as the molecule, how does the tolerability [1] read?
**A.** Its tolerability is “well tolerated”.

**Q.** Which “IR-induced increase in baseline Ca2+ signaling activity” value [2] does the source give for apyrase here?
**A.** The value was “abolished”.

**Q.** And the “IR-induced increase in TRPV4EC channel activity” value (TRPV4EC channels)?
**A.** The value was “abolished”.

**Q.** For `CC(C)C[C@H](NC(=O)c1cc2ccccc2s1)C(=O)N1CCN(C(=O)[C@H](CO)NS(=O)(=O)c2ccc(Cl)cc2Cl)CC1` [GSK101, GSK1016790A], which “eATP efflux through Panx1 channels (eATP release from small PAs)” value [3] is on record?
**A.** Its value is “increased”.
